What was measured:
IDO1 [1] = molecular target: T1, IDO1 (Homo sapiens (Human), UniProt P14902); test: IDO1 Enzyme Assay; type: biochemical; settings: HIS-tagged recombinant IDO1, tryptophan substrate, fluorescence readout; for IC50: read-out: IDO1 Enzyme, pIC50 (converted)
Description: Compounds to be tested were serially diluted in ten 3-fold steps in DMSO starting from 10 mM DMSO stocks. Compound dilutions or DMSO alone were then dispensed from the dilution plate into a Greiner black 384-well assay plate (catalog #781086) using an Echo 555 acoustic liquid handler (Labcyte).
HIS-tagged IDO1 protein was recombinantly expressed in Escherichia coli using ZYP5052 autoinduction media supplemented with 500 μM delta aminolevulinic acid for 48 hours at 16 degrees Celsius. IDO1 protein was purified using Ni^2+-affinity resin and size exclusion chromatography. Purified protein was then diluted in assay buffer (50 mM Tris pH 7.0, 1% glycerol, 20 uM methylene blue, 0.05% Tween-20, 20 mM sodium ascorbate, 100 units/mL catalase to obtain a final IDOL concentration of 40 nM. IDOL solution ([…]) or buffer alone ([…]) were dispensed to wells of the assay plate using a BioRAPTR liquid dispenser (Beckman Coulter). Assay plates containing compound and IDO1 enzyme were incubated at room temperature for 30 minutes. Afterwards, 10 μL of 400 μM tryptophan in assay buffer were added to each well of the assay plate using a BioRAPTR liquid dispenser. Plates were incubated at room temperature for 60 minutes and reactions were quenched by addition of 10 μL of 0.5 M methyl isonipecotate in dimethyl sulfoxide. Plates were sealed and incubated at 37 degrees Celsius for 4 hours or 50 degrees Celsius for 2 hours. The plates are allowed to cool and then centrifuged for 1 minute at 1000×g. The resulting fluoresence was measured in an Envision plate reader (Perkin Elmer) with a 400/25 nm excitation filter and an 510/20 nm emission filter.
Potencies were calculated by linear least squares fit to the four parameter logistic IC50 equation.

IDO1 [2] = molecular target: T1, IDO1; test: IDO1 HEK293 Cellular Assay; type: cell-based; settings: HEK293 cells transfected with Flag-IDO1, 200 μM L-Tryptophan, 20-24 hours; for IC50: read-out: HEK293 cell, pIC50 (converted)
Description: IDO1 HEK293 Cellular Assay
Compounds to be tested were serially diluted in ten 3-fold steps in DMSO starting from 10 mM DMSO stocks. Compound dilutions or DMSO alone were then dispensed from the dilution plate into a Greiner black 384-well assay plate (catalog #781086) using an Echo 550 acoustic liquid handler (Labcyte).
HEK293 cell pellets were resuspended to 5×10^5 cells/mL in complete HEK293 culture media (89% DMEM, 10% FBS, 1% penicilllin/streptomycin). Suspended cells (2 mL) were dispensed into each well of a 6-well Corning plate (Catalog#3516). Cells were allowed to attach and were incubated for 20 hours at 37 degrees Celsius in a 5% CO2 incubator. Flag-IDO1 vector (Genscript True ORF Gold, 2 ug) in 150 uL of Opti-MEM medium was added to each well of a Corning 24 well plate (Cat#3527) and incubated for 5 minutes at room temperature. To each well of the 24-well plate was added 150 μL Lipofectamine 2000 (Gibco) and the plate incubated at room temperature for 20-30 minutes. To each well of attached cells in the 6-well plate, 250 μL of the transfection mix from the 24well plate was gently added to each well and IDO1 protein was allowed to express for 24-30 hours at 37 degrees Celsius in a 5% CO2 incubator.
Media was removed from the cells which were then washed with 2 mL Dulbecco's phosphate-buffered saline (DPBS). After removal of DPBS, 0.5 mL of TrypLE (Gibco) was added and incubated at 5 minutes until cells lift from the surface of the wells. Complete HEK293 culture media (4 mL) was added to each well and cells were collected and pooled into a conical tube. Cells were pelleted at 200×g for 5 minutes and resuspended in an equal volume of complete DMEM medium. Cells were diluted to 4×10^5 cells per mL in complete HEK293 media. L-Tryptophan was added to added to give a final concentraiton of 200 μM. The diluted transfected cells (50 μL) or nontransfected cells (50 μL) were dispensed into wells of Greiner black 384-well assay plates (catalog #781086) containing previously diluted compounds. The plate is briefly mixed and centrifuged at 200×g for 10 seconds to collect cells at the bottom of the plate. Plates were covered and incubated for 20-24 hours at 37 degrees C. in a 5% CO2 incubator. Afterwards 10 μL of 0.5 M methyl isonipecotate in dimethyl sulfoxide was added to each well, mixed, sealed, and centrifuged at 500 rpm for 10 seconds. Plates were incubated at 37 degrees in a 5% CO2 incubator overnight to develop fluoresence. The plates are allowed to cool and then centrifuged for 1 minute at 1000×g. The resulting fluoresence was measured in an Envision plate reader (Perkin Elmer) with a 400/25 nm excitation filter and an 510/20 nm emission filter.
The fluoresence intensity of each well was corrected for the background observed in wells with untransfected cells and was expressed as a fraction of the intensity observed in wells of IDO1 transfected cells and DMSO only. Potencies were calculated by linear least squares fit to the four parameter logistic IC50 equation.

IDO [3] = molecular target: T2, IDO (Homo sapiens (Human), UniProt P14902); test: hIDO biochemical coupled assay; settings: 45 μM L-tryptophan, 17 minutes at room temperature
Description: (§1) Exemplary compounds of the invention were prepared, and tested to determine their effect as TDO and/or IDO inhibitors. Two different assays were employed: 1. a cell-based assay for detecting the effect of test compounds on kynurenine production in two different cancer cell types. This assay utilised cancer cells which expressed either TDO or IDO and as such was used as a means of testing compound activity at these two enzymes in a cell-based context. 2. a TDO and IDO biochemical coupled assay which utilised recombinantly produced and purified TDO and IDO enzymes in combination with the enzyme formamidase. This coupled enzyme system allowed conversion of N-formylkynurenine produced by TDO or IDO activity to kynurenine which was then quantified by fluorescence following addition of Erhlich's Reagent The protocols for these are set out below.
(§2) TDO and IDO Biochemical Coupled Assay
(§3) Recombinant human IDO or TDO was incubated in 50 mM KPO4 (pH 7.0), 0.5 mM EGTA, 0.5 mM EDTA, 0.05% Triton™ X100, 20 mM ascorbate, 10 μM methylene blue, 500 U/ml catalase, 50 μg/ml KynB (kynurenine formamidase). TDO assays were carried out in the presence of 330 μM L-tryptophan, while IDO assays had the addition of 45 μM L-tryptophan. After incubation for 17 minutes at room temperature the reactions were stopped by the addition of Erhlich's reagent and incubated at room temperature for 5 minutes before the fluorescence was read (Ex 475, Em530).

TDO [4] = molecular target: T3, TDO (Homo sapiens (Human), UniProt P48775); test: hTDO biochemical coupled assay; settings: 330 μM L-tryptophan, 17 minutes at room temperature
Description: as §1, §2, §3

IDO [5] = molecular target: T2, IDO; test: SKOV3 kynurenine cell-based assay (IDO induced by IFN-γ); settings: SKOV3 human ovarian adenocarcinoma cells, 500 ng/ml IFN-γ, 500 μM L-tryptophan, 48 hours
Description: as §1
(§4) Cell Based Assay for Detection of Kynurenine Produced by TDO and/or IDO
(§5) A172 (human glioblastoma) and SKOV3 (human ovarian adenocarcinoma) cells were seeded in a 96 well plate at 30,000 or 40,000 cells per well respectively in phenol red-free RPMI supplemented with 10% FCS, 2 mM L-glutamine and 500 μM L-tryptophan. IDO expression was induced in the SKOV3 cells by the addition of 500 ng/ml IFN-γ. Cells were incubated at 37° C. with or without the addition of test compound. After 48 hours, the cells were removed by centrifugation and Erhlich's reagent was added to the supernatant. The Erhlich's reagent was incubated for 5 minutes before the absorbance was read at 490 nm.

TDO [6] = molecular target: T3, TDO; test: A172 kynurenine cell-based assay; settings: A172 human glioblastoma cells, 500 μM L-tryptophan, 48 hours
Description: as §1, §4, §5

T1 sequence (P14902 whole entry): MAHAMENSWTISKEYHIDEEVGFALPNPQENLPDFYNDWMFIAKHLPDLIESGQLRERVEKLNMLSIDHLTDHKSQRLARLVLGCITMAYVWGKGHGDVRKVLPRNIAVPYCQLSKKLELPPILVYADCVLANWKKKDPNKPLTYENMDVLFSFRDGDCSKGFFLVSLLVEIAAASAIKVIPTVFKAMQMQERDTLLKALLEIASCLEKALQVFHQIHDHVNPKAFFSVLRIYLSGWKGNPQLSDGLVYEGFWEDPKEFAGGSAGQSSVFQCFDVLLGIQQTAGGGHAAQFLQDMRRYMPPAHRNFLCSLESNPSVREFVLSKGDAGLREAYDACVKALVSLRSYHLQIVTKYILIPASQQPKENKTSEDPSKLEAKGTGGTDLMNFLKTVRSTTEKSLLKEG
T2 sequence (P14902 whole entry): as above
T3 sequence (P48775 whole entry): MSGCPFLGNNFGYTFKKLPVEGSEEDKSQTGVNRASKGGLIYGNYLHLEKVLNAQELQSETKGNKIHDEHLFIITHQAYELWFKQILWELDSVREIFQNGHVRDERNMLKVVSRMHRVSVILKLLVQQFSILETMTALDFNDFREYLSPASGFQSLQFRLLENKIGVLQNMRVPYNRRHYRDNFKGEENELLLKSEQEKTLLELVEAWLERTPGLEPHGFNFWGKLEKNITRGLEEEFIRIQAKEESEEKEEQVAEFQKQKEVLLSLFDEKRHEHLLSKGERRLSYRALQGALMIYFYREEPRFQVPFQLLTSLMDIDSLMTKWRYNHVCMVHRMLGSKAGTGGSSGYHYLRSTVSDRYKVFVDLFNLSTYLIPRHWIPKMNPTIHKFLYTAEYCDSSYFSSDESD

Compound | IC50 (IDO1 [1]) [nM] | IC50 (IDO1 [2]) [nM] | hIDO biochemical assay, pIC50 (IDO [3]) | hTDO biochemical assay, pIC50 (TDO [4]) | SKOV3 Kynurenine cell based assay, pIC50 (IDO [5]) | A172 Kynurenine cell based assay, pIC50 (TDO [6]) | IDO1 Enzyme, pIC50 (IDO1 [1]) | HEK293 cell, pIC50 (IDO1 [2])
FC(F)(F)c1cc(N2CCC(n3cnnn3)CC2)n2cncc2c1 [Compound 1038, 5-[4-(1H-tetrazol-1-yl)piperidin-1-yl]-7-(trifluoromethyl)imidazo[1,5-a]pyridine] | 1000 | 794 | – | – | – | – | – | –
CS(=O)(=O)N1CCC(c2cc(C(F)(F)F)cc3cncn23)CC1 [Compound 1017] | – | – | + (+ = pIC50 4.00-4.49) | + (+ = pIC50 4.00-4.49) | +/− (+/− = pIC50 <4.00) | ++ (++ = pIC50 4.50-5.49) | – | –
CNC(=O)c1c(C)noc1C1CCN(c2cc(C(F)(F)F)cc3cncn23)CC1 [Compound 1036, N,3-dimethyl-5-{1-[7-(trifluoromethyl)imidazo[1,5-a]pyridin-5-yl]piperidin-4-yl}isoxazole-4-carboxamide] | 398 | 2510 | – | – | – | – | – | –
CC1(C)CN(c2cc(Br)cc3cncn23)CCN1S(C)(=O)=O [Compound 1021] | – | – | – | – | +++ (+++ = pIC50 ≥5.50) | +++ (+++ = pIC50 ≥5.50) | 6.8 | 6.7
CN1C(=O)N(C2CCN(c3cc(C(F)(F)F)cc4cncn34)CC2)C(=O)C1(C)C [Compound 1034] | – | – | ++ (++ = pIC50 4.50-5.49) | ++ (++ = pIC50 4.50-5.49) | ++ (++ = pIC50 4.50-5.49) | ++ (++ = pIC50 4.50-5.49) | – | –
Cn1c(N)c(N2CCN(c3cc(C(F)(F)F)cc4cncn34)CC2)c(=O)n(C)c1=O [Compound 1037, 6-amino-1,3-dimethyl-5-{4-[7-(trifluoromethyl)imidazo[1,5-a]pyridin-5-yl]piperazin-1-yl}pyrimidine-2,4(1H,3H)-dione] | 794 | 3980 | – | – | – | – | – | –
OCCc1cc(C(F)(F)F)cn2cncc12 [Compound 1008] | – | – | +/− (+/− = pIC50 <4.00) | +/− (+/− = pIC50 <4.00) | + (+ = pIC50 4.00-4.49) | +/− (+/− = pIC50 <4.00) | – | –
CS(=O)(=O)N1CCN(c2cc(C(F)(F)F)cc3cncn23)CC1 [Compound 1019] | – | – | ++ (++ = pIC50 4.50-5.49) | ++ (++ = pIC50 4.50-5.49) | + (+ = pIC50 4.00-4.49) | ++ (++ = pIC50 4.50-5.49) | – | –
Cc1noc(C2CCN(c3cc(C(F)(F)F)cc4cncn34)CC2)c1C(N)=O [Compound 1035, 3-methyl-5-{1-[7-(trifluoromethyl)imidazo[1,5-a]pyridin-5-yl]piperidin-4-yl}isoxazole-4-carboxamide] | 251 | 501 | – | – | – | – | – | –
O=C(Nc1cccn2cncc12)c1ccccc1 [Compound 1001] | – | – | +/− (+/− = pIC50 <4.00) | +/− (+/− = pIC50 <4.00) | + (+ = pIC50 4.00-4.49) | +/− (+/− = pIC50 <4.00) | – | –
CC(=O)N1CCN(c2cc(C(F)(F)F)cc3cncn23)CC1 [Compound 1018] | – | – | ++ (++ = pIC50 4.50-5.49) | ++ (++ = pIC50 4.50-5.49) | + (+ = pIC50 4.00-4.49) | ++ (++ = pIC50 4.50-5.49) | – | –
